Assay results from US10329302B2, “Bicyclic-fused heteroaryl or aryl compounds” (Pfizer Inc., priority 2014, dated 2019).
Read-outs that look alike come from different tables or passages of the source.

Columns and labels:
[1] = tested on: R848-induced TNFα production by human peripheral blood mononuclear cells (PBMCs); assay: R848 Induced TNFα in Human PBMC Assay; assay type: cell-based; settings: Homo sapiens, PBMC, 3 h, read-out: R848-induced TNFa PBMC IC50 (nM)
Source text: R848 Induced TNFα in Human PBMC Assay.
This protocol is for R848-induced TNFα production by human peripheral blood mononuclear cells (PBMCs). […] The assay is used to assess cell-based potency of small molecule inhibitors of IRAK4 in the absence of serum.
The PBMCs in the interphase layer were collected and washed with PBS via centrifugation multiple times until the supernatant is clear. The purified PBMCs were re-suspended in RPMI (Roswell Park Memorial Institute) media (Sigma-Aldrich).
For the assay, a compound dilution plate containing a top concentration of 4 mM compound in DMSO was serially diluted 4-fold for 11 times. 250 nL of the compound dilution plate was spotted into a 384-well, flat bottom with lid, TC-treated, black with clear bottom, sterile, polystyrene plate (Corning Life Sciences).
10 μL of anti-TNFα antibody labeled with MSD SULFO-TAG at 50 μg/mL was added to each well and allowed to incubate overnight at 4° C.

[2] = molecular target: human IRAK4 FL (Full Length) (Homo sapiens (Human), UniProt Q9NWZ3); assay: IRAK4 Enzymatic DELFIA Assay, Protocol A; assay type: biochemical
human IRAK4 FL (Full Length), sequence (Q9NWZ3 whole entry): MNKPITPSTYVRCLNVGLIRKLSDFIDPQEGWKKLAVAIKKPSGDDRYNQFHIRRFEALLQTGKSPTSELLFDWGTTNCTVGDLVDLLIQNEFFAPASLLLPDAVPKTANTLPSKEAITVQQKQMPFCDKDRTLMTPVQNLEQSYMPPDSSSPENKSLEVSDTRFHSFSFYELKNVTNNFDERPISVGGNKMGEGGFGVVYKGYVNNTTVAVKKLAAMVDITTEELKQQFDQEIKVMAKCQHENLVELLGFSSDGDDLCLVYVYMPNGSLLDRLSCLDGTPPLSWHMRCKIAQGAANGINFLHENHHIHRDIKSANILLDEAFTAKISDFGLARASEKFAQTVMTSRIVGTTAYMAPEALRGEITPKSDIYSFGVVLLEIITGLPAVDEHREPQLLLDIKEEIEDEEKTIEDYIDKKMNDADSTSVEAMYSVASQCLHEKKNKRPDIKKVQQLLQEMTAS

[3] = human IRAK4 FL, 0.6 mM ATP (KM), read-out: IRAK4 DELFIA Protocol A IC50

SMILES | IC50 [1] | IC50 [2, 3] | IC50 [2]
COc1cc2c(OC[C@H]3NC(=O)C[C@H]3C)cccc2cc1C(N)=O [Example 216, 3-methoxy-5-{[(2S,3R)-3-methyl-5-oxopyrrolidin-2-yl]methoxy}naphthalene-2-carboxamide] | 27 nM | 0.4 nM | –
CC[C@@H]1[C@H](OC)C(=O)N[C@@H]1COc1nccc2cc(C(N)=O)c(OC)cc12 [Example 342, 1-{[(2S,3S,4S)-3-ethyl-4-methoxy-5-oxopyrrolidin-2-yl]methoxy}-7-methoxyisoquinoline-6-carboxamide] | 2380 nM | 1000 nM | –
CC(C)Oc1cc2c(OC[C@H]3NC(=O)[C@@H](F)[C@H]3C)nccc2cc1C(N)=O [Example 187, 1-{[(2S,3S,4S)-4-fluoro-3-methyl-5-oxopyrrolidin-2-yl]methoxy}-7-(propan-2-yloxy)isoquinoline-6-carboxamide] | 40 nM | 1.1 nM | –
COc1cc2c(OC[C@H]3NC(=O)[C@@H]4[C@@H](F)[C@@H]43)ccnc2cc1C(N)=O [Example 324, 4-{[(1S,2S,5R)-6-fluoro-4-oxo-3-azabicyclo[3.1.0]hex-2-yl]methoxy}-6-methoxyquinoline-7-carboxamide] | 277 nM | 0.6 nM | –
CC(C)Oc1cc2c(OCC3(CO)CCC(=O)N3)nccc2cc1C(N)=O (stereo not drawn) [Example 147, 1-{[2-(hydroxymethyl)-5-oxopyrrolidin-2-yl]methoxy}-7-(propan-2-yloxy)isoquinoline-6-carboxamide] | 1160 nM | – | 59 nM
COc1cc2c(OC[C@H]3NC(=O)CC34CC4)nccc2cc1C(N)=O [Example 330, 7-methoxy-1-{[(4S)-6-oxo-5-azaspiro[2.4]hept-4-yl]methoxy}isoquinoline-6-carboxamide] | 134 nM | 14 nM | –
COc1cc2c(OC[C@H]3NC(=O)[C@H]4[C@@H]3[C@]4(C)F)nccc2cc1C(N)=O [Example 335, 1-{[(1S,2S,5R)-6-fluoro-6-methyl-4-oxo-3-azabicyclo[3.1.0]hex-2-yl]methoxy}-7-methoxyisoquinoline-6-carboxamide] | 746 nM | 4 nM | –
CC(C)Oc1cc2c(OC[C@@H]3C[C@](C)(F)C(=O)N3)nccc2cc1C(N)=O [Example 134, 1-{[(2S,4S)-4-fluoro-4-methyl-5-oxopyrrolidin-2-yl]methoxy}-7-(propan-2-yloxy)isoquinoline-6-carboxamide] | 36 nM | 1 nM | –
COc1cc2c(OC[C@H]3COC(=O)N3)nccc2cc1C(N)=O [Example 229, 7-methoxy-1-{[(4S)-2-oxo-1,3-oxazolidin-4-yl]methoxy}isoquinoline-6-carboxamide] | 6300 nM | 3510 nM | –
COc1cc2c(OC[C@@H]3C[C@@](F)(CO)C(=O)N3)nccc2cc1C(N)=O [Example 205, 1-{[(2S,4R)-4-fluoro-4-(hydroxymethyl)-5-oxopyrrolidin-2-yl]methoxy}-7-methoxyisoquinoline-6-carboxamide] | 380 nM | 3.6 nM | –
COc1cc2c(OC[C@H]3NC(=O)[C@H]4[C@@H]3[C@@]4(C)F)nccc2cc1C(N)=O [Example 336, 1-{[(1S,2S,5R)-6-fluoro-6-methyl-4-oxo-3-azabicyclo[3.1.0]hex-2-yl]methoxy}-7-methoxyisoquinoline-6-carboxamide] | 674 nM | 0.3 nM | –
COc1cc2c(OC[C@H]3NC(=O)C[C@H]3CCF)nccc2cc1C(N)=O [Example 355, 1-{[(2S,3S)-3-(2-fluoroethyl)-5-oxopyrrolidin-2-yl]methoxy}-7-methoxyisoquinoline-6-carboxamide] | 33 nM | 1.7 nM | –
COc1c(C(N)=O)cc2ccnc(OC[C@H]3NC(=O)[C@@H]4[C@@H](C)[C@@H]43)c2c1F [Example 365, 8-fluoro-7-methoxy-1-{[(1S,2S,5R)-6-methyl-4-oxo-3-azabicyclo[3.1.0]hex-2-yl]methoxy}isoquinoline-6-carboxamide] | 724 nM | 187 nM | –
COc1cc2c(OC[C@@H]3COC(=O)N3)cccc2cc1C(N)=O [Example 233, 3-methoxy-5-{[(4R)-2-oxo-1,3-oxazolidin-4-yl]methoxy}naphthalene-2-carboxamide] | 47 nM | 0.3 nM | –
CC(C)Oc1cc2c(OC[C@@H]3C[C@@H](F)C(=O)N3)nccc2cc1C(N)=O [Example 144, 1-{[(2S,4R)-4-fluoro-5-oxopyrrolidin-2-yl]methoxy}-7-(propan-2-yloxy)isoquinoline-6-carboxamide] | 141 nM | 1.4 nM | –
CCOc1cc2c(OC[C@H]3NC(=O)[C@@H]4C[C@H]34)nccc2cc1C(N)=O [Example 282, 7-ethoxy-1-{[(1S,2S,5R)-4-oxo-3-azabicyclo[3.1.0]hex-2-yl]methoxy}isoquinoline-6-carboxamide] | 191 nM | 11 nM | –
CC[C@@H]1[C@H](O)C(=O)N[C@@H]1COc1nccc2cc(C(N)=O)c(OC)cc12 [Example 352, 1-{[(2S,3S,4S)-3-ethyl-4-hydroxy-5-oxopyrrolidin-2-yl]methoxy}-7-methoxyisoquinoline-6-carboxamide] | 557 nM | 3.3 nM | –

SMILES | IC50 [1] | IC50 [2, 3] | IC50 [2]
COc1cc2c(OC[C@H]3NC(=O)[C@@]4(F)[C@@H]3[C@@H]4C)ccnc2cc1C(N)=O [Example 323, 4-{[(1R,2S,5S)-5-fluoro-6-methyl-4-oxo-3-azabicyclo[3.1.0]hex-2-yl]methoxy}-6-methoxyquinoline-7-carboxamide] | 30 nM | 0.2 nM | –
CC(C)Oc1cc2c(OC[C@@H]3CCC(=O)N3)ncc(-c3cn(C)cn3)c2cc1C(N)=O [Example 371, 4-(1-methyl-1H-imidazol-4-yl)-1-{[(2S)-5-oxopyrrolidin-2-yl]methoxy}-7-(propan-2-yloxy)isoquinoline-6-carboxamide] | 604 nM | 7 nM | –
COc1cc2c(OC[C@@H]3C[C@H](OC)C(=O)N3)cccc2cc1C(N)=O [Example 231, 3-methoxy-5-{[(2S,4S)-4-methoxy-5-oxopyrrolidin-2-yl]methoxy}naphthalene-2-carboxamide] | 509 nM | – | 67 nM
COc1cc2c(OC[C@H]3NC(=O)[C@]4(F)C[C@H]34)ccnc2cc1C(N)=O [Example 325, 4-{[(1R,2S,5S)-5-fluoro-4-oxo-3-azabicyclo[3.1.0]hex-2-yl]methoxy}-6-methoxyquinoline-7-carboxamide] | 87 nM | 0.4 nM | –
COc1cc2c(OC[C@H]3NC(=O)[C@@H](F)[C@H]3CCF)nccc2cc1C(N)=O [Example 370, 1-{[(2S,3S,4S)-4-fluoro-3-(2-fluoroethyl)-5-oxopyrrolidin-2-yl]methoxy}-7-methoxyisoquinoline-6-carboxamide] | 3.7 nM | 0.1 nM | –
Cc1nc(-c2cnc(OC[C@@H]3CCC(=O)N3)c3cc(OC(C)C)c(C(N)=O)cc23)c[nH]1 [Example 373, 4-(2-methyl-1H-imidazol-4-yl)-1-{[(2S)-5-oxopyrrolidin-2-yl]methoxy}-7-(propan-2-yloxy)isoquinoline-6-carboxamide] | 6160 nM | 35 nM | –
CC(C)Oc1cc2c(OC[C@@H]3CCC(=O)N3)nccc2cc1C#N [Example 03, 1-{[(2S)-5-oxopyrrolidin-2-yl]methoxy}-7-(propan-2-yloxy)isoquinoline-6-carbonitrile] | 2740 nM | 575 nM | –
COc1cc2c(OC[C@H]3NC(=O)[C@](C)(F)[C@H]3C)nccc2cc1C(N)=O [Example 237, 1-{[(2S,3S,4R)-4-fluoro-3,4-dimethyl-5-oxopyrrolidin-2-yl]methoxy}-7-methoxyisoquinoline-6-carboxamide] | 1080 nM | 295 nM | –
CC(C)Oc1cc2c(OC[C@@H]3C[C@H](O)C(=O)N3)nccc2cc1C(N)=O [Example 150, 1-{[(2S,4S)-4-hydroxy-5-oxopyrrolidin-2-yl]methoxy}-7-(propan-2-yloxy)isoquinoline-6-carboxamide] | 864 nM | 41 nM | –
CC[C@@H]1C[C@@H](COc2nccc3cc(C(N)=O)c(OC(C)C)cc23)NC1=O [Example 136, 1-{[(2S,4R)-4-ethyl-5-oxopyrrolidin-2-yl]methoxy}-7-(propan-2-yloxy)isoquinoline-6-carboxamide] | 184 nM | 7.8 nM | –
COc1cc2c(OC[C@@H]3C[C@@](F)(CF)C(=O)N3)nccc2cc1C(N)=O [Example 215, 1-{[(2S,4S)-4-fluoro-4-(fluoromethyl)-5-oxopyrrolidin-2-yl]methoxy}-7-methoxyisoquinoline-6-carboxamide] | 35 nM | – | 1.7 nM
COc1cc2c(OC[C@@H]3C[C@H](C)C(=O)N3)nccc2cc1C(N)=O [Example 242, 7-methoxy-1-{[(2S,4S)-4-methyl-5-oxopyrrolidin-2-yl]methoxy}isoquinoline-6-carboxamide] | 7250 nM | 263 nM | –
COC[C@@H]1CC(=O)N[C@@H]1COc1nccc2cc(C(N)=O)c(OC)cc12 [Example 340, 7-methoxy-1-{[(2S,3R)-3-(methoxymethyl)-5-oxopyrrolidin-2-yl]methoxy}isoquinoline-6-carboxamide] | 456 nM | 12 nM | –
CC(C)Oc1cc2c(OC[C@@H]3COC(=O)N3)nccc2cc1C(N)=O [Example 04, 1-{[(4R)-2-oxo-1,3-oxazolidin-4-yl]methoxy}-7-(propan-2-yloxy)isoquinoline-6-carboxamide] | 1800 nM | 6.6 nM | –
COc1cc2c(OC[C@H]3NC(=O)[C@H]4[C@@H]3C4(Cl)Cl)nccc2cc1C(N)=O [Example 311, 1-{[(1S,2S,5R)-6,6-dichloro-4-oxo-3-azabicyclo[3.1.0]hex-2-yl]methoxy}-7-methoxyisoquinoline-6-carboxamide] | 1080 nM | 229 nM | –
CC[C@@H]1[C@H](F)C(=O)N[C@@H]1COc1nccc2cc(C(N)=O)c(OC)c(F)c12 [Example 361, 1-{[(2S,3S,4S)-3-ethyl-4-fluoro-5-oxopyrrolidin-2-yl]methoxy}-8-fluoro-7-methoxyisoquinoline-6-carboxamide] | 27 nM | 4.8 nM | –
